The values that follow come from PMC10045301, “The Role of Pyrazolo[3,4-d]pyrimidine-Based Kinase Inhibitors in The Attenuation of CCl4-Induced Liver Fibrosis in Rats” (Antioxidants, 2023).

A short description of data set [1]: Cytotoxicity MTT assay. It is filed as cell-based. The note with it: human, HepG2 cells (hepatocellular carcinoma cell line), HepG2, MTT, mean ± SEM, n = 3. The procedure:
(§1) MTT assay was used to estimate cell viability potential for 24 h using hepatocellular carcinoma cell line (HepG2) as previously reported. Calculation of the relative cell viability percentage was performed following the equation: % Relative cell viability = (Absorbance of treated samples/Absorbance of untreated sample) × 100.

For data set [2], the system named is induced liver fibrosis. The note with it: cited from earlier work.
For data set [3], the system named is healthy adult Sprague–Dawley male rats. The experiment in a line: In vivo toxicity study, 6 weeks oral daily. Also on record: species or system rat. The note with it: plasma, oral daily 6 weeks, dose equimolar to celecoxib 20 mg/kg; mean ± SEM, n = 6. The procedure: (§2) Ninety-eight healthy adult Sprague–Dawley male rats with an average weight of 150 ± 20 g were obtained from the animal facility at the Institute of Graduate Studies and Research, Alexandria University, Egypt. Animals were provided with a balanced commercial diet ad libitum and adapted for two weeks prior to the experiment. All animals were sacrificed under IP thiopental anesthesia (50 mg/kg) 48 h after the last treatment.
Blood samples were collected using cardiac puncture in Li-heparin tubes and centrifuged at 2000× g for 10 min to obtain the plasma. Then, the determination of hepatic biomarkers and renal profile was performed according to kits purchased from Roche Diagnostics, USA, using a Roche/Hitachi analyzer (cobas c 311, cobas c 501/502). […]

The subject of data set [4] is induced liver fibrosis. As to conditions: injected subcutaneously 3.6 µL/day, mice models; cited from earlier work.
Data set [5] has as its system hepatocellular carcinoma cell line (HepG2). The data set is described as follows: Cytotoxicity MTT assay. In kind it is cell-based. The note with it: human, 24 h. The procedure: as §1
On the technique in general: Tetrazolium assays rely on reduction of a dye to a coloured formazan, in cell work by metabolically active cells.

Data set [6] addresses T1, COX-1 (Ovis aries, UniProt P05979).
T1 construct: purchased Cayman Chemicals, Ann Arbor, MI, USA 560131
T1 sequence (P05979 25-600): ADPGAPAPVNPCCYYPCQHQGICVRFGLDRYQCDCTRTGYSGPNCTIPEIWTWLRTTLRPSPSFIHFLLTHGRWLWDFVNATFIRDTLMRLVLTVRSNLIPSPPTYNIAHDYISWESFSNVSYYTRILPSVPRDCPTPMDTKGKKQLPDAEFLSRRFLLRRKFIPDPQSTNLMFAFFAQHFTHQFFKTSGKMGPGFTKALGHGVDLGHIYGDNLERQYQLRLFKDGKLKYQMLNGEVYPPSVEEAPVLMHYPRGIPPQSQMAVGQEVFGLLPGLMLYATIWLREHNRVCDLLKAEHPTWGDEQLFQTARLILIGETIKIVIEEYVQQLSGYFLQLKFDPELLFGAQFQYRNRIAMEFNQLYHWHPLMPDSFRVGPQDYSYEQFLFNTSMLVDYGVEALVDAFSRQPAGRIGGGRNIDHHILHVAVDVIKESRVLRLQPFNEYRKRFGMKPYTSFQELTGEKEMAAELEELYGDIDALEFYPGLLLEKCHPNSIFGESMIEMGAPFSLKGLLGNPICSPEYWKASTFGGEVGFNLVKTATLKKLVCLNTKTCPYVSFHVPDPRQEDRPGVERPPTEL
The experiment in a line: In vitro COX-1 inhibition assay (Cayman colorimetric COX (ovine) inhibitor screening kit). In kind it is biochemical. As to conditions: mean ± SEM, n = 3.

Data set [7] relates to CCl4-induced liver fibrosis in male Sprague–Dawley rats. The experiment in a line: Therapeutic model treated after induction of CCl4 liver fibrosis. In kind it is in vivo, rat. As to conditions: for redox status (MDA, GSH, SOD in liver homogenate): oral daily weeks 7-12 after CCl4, compared to Clx. The procedure: as §2
Blood samples were collected using cardiac puncture in Li-heparin tubes and centrifuged at 2000× g for 10 min to obtain the plasma. Then, the determination of hepatic biomarkers and renal profile was performed according to kits purchased from Roche Diagnostics, USA, using a Roche/Hitachi analyzer (cobas c 311, cobas c 501/502).
Rats were sacrificed by exsanguination following blood sample collection. The livers were excised, rinsed with cold saline, and dried on filter paper. A portion of each excised liver was put in 10% formalin solution, and then embedded in paraffin and sliced into 4–5 µm sections for histological evaluation. Another part of each liver was snap frozen and stored at −80 °C for later analyses of markers. The remaining tissue was stored in RNAlater solution (Qiagen, Germany, Mat. No. 1018087, lot no. 148052467) for qRT-PCR.
Sections from formalin-fixed paraffin-embedded (FFPE) liver tissues were stained with hematoxylin and eosin and Masson trichrome stain to evaluate liver necrosis and fibrosis. The scores of liver fibrosis degree were evaluated according to a 4-tiered scoring system following the criteria: score 0 = absent fibrosis where scanty fibrous tissue is seen only in portal tracts, score 1 = minimal fibrosis (expanded portal tracts with short fibrous septea may be extending from portal tracts), score 2 = mild fibrosis (long fibrous septea is extending from portal tracts with occasional bridging to other portal tracts or to central veins), score 3 = moderate fibrosis (frequent portal to portal or to central vein bridging with infrequent pseudolobule formation), and score 4 = severe fibrosis (nodular liver with evident pseudolobule formation). For collagen morphological quantification, multiple random pictures of the trichrome-stained section were taken using a microscope-adopted camera at ×400 power. The collagen-positive area stained in blue was evaluated using ImageJ software and then calculated as a percentage of the total field area. At least eight fields were assessed and the mean value was then calculated.
Four-micron sections were cut and mounted on positively charged slides. They were stained with smooth muscle actin (SMA) monoclonal primary antibody (Dako, Denmark; CodeIR611, lot no. 41247585) using Dako auto Stainer (autostainer Link 48). A positive control (leiomyoma) was used in each run. Immune-stained slides were assessed, and ten high power fields of each section were photographed using a Leica camera. Photos were analyzed using ImageJ software to record the immune-positive area (seen as brown staining) in each photo. Then, the positively stained area percentage was calculated as a mean of the 10 examined photos for each rat.
Protein content determination was performed according to Bradford using bovine serum albumin as a standard. A volume of 5 μL of each sample and standard was first added to each well then 250 μL of Ready-To-Use Coomassie Blue G-250 Based Reagent (Thermo Scientific, Waltham, MA, USA; Prod no. 23200, lot no. UE285518) was added. The microplate was put on the shaker for 30 s and then incubated for 10 min at RT. Absorbance was read at […] using a microplate reader.
The malondialdehyde (MDA) level was estimated using the thiobarbituric acid method as previously described. Liver glutathione was estimated using a colorimetric kit (Biodiagnostics, Egypt; catalog no. GR 25 11) according to the method of Beutler et al.. […]

Setting [8] is: liver tissue homogenate, after CCl4.

Where two headings read alike, the source gives them in different places.

`Cc1ccc(-c2cc(C(F)(F)F)nn2-c2ccc(S(N)(=O)=O)cc2)cc1` [Celecoxib, celecoxib, reference compound] returned a half-maximal inhibitory concentration (IC50) at 24 h in data set [1] of 144.6 ± 1.08 µM. Further, the “effect on induced liver fibrosis” value in data set [2] (15 mg/kg/day orally, rat models) is on record as “no effect”. Also, in data set [2] (20 mg/kg/day orally), the “effect on induced liver fibrosis” value is “potentiality in the attenuation of induced liver fibrosis”. In data set [3], this molecule came in with an ALP of 138.66 ± 13.40 U/L, an ALT of 42 ± 3.33 U/L, an AST of 147.5 ± 18.65 U/L and an Albumin of 3.73 ± 0.06 g/dL. For the same molecule, in data set [3], the Cholesterol is reported as 52.5 ± 2.21 mg/dL, the Creatinine worked out at 0.35 ± 0.01 mg/dL, the “Total Bilirubin” value was determined as 0.084 ± 0.006 mg/dL and the Triglycerides turned out to be 53 ± 7.11 mg/dL. In data set [4], the “effect on induced liver fibrosis” value is reported as “no effect”.
For the molecule `COc1ccc(/C=N/Nc2ncnc3c2cnn3-c2ccccc2)cc1` [Compound D1], the half-maximal inhibitory concentration (IC50) at 24 h in data set [1] came to 370.7 ± 0.089 µM. For the same molecule, the “Safety Index (SI)” value in data set [5] is reported as 2745.9. The IC50 in data set [6] was determined as 7.5 ± 0.09 µM. In data set [3], the ALP is 159.5 ± 7.48 U/L, the ALT is reported as 49.66 ± 4.99 U/L, the AST is on record as 139.5 ± 7.78 U/L and the Albumin was 3.9 ± 0.12 g/dL. For the same molecule, in data set [3], the Cholesterol amounted to 71.66 ± 7 mg/dL, the Creatinine was determined as 0.36 ± 0.03 mg/dL, the “Total Bilirubin” value stood at 0.073 ± 0.004 mg/dL and the Triglycerides is 67 ± 5.42 mg/dL. For the same molecule, in data set [7], the “redox status (MDA, GSH, SOD in liver homogenate)” value is “no significance difference to Clx treatment”.
As for `COc1ccc(/C=N/Nc2ncnc3c2cnn3-c2ccccc2)cc1OC` [Compound D2], half-maximal inhibition in data set [1] (IC50 at 24 h) was put at 344.95 ± 0.3 µM. Besides, the “Safety Index (SI)” value in data set [5] is on record as 3349.0. Further, 8.5 ± 0.04 µM corresponded to half-maximal inhibition in data set [6] (IC50). In data set [3], this molecule displayed an ALP of 154.16 ± 10.92 U/L, an ALT of 39.66 ± 2.13 U/L, an Albumin of 3.78 ± 0.12 g/dL and a Cholesterol of 67 ± 6.47 mg/dL. For the same molecule, in data set [3], the Creatinine worked out at 0.37 ± 0.01 mg/dL, the “Total Bilirubin” value was determined as 0.071 ± 0.01 mg/dL and the Triglycerides was 61.83 ± 7.11 mg/dL. Moreover, in data set [7] (after CCl4 and treatment, vs model and control), the “hepatic mRNA expression of MMP-9” value is listed as “more significant reduction, reaching a low MMP-9 level near that of the control group”. Besides, the “reduction of TGF-β compared to celecoxib” value in data set [7] (hepatic mRNA, after CCl4 and treatment) is on record as “more significant than celecoxib”. For the same molecule, the “proinflammatory and profibrogenic cytokines (TNF-α protein, TGF-β and IL-6 gene expression)” value in data set [7] (liver, after CCl4 and treatment) was “decreased considerably reaching the control level”. Further, in data set [7] (oral daily weeks 7-12 after 6 weeks CCl4, vs model and Clx group), the “severity of fibrosis (architecture, fibrotic score, collagen- and α-SMA-positive areas, α-SMA and COL1A1 mRNA)” value is on record as “best effect”. In data set [7], the “redox status (MDA, GSH, SOD in liver homogenate)” value is listed as “best enhancement”. Besides, in data set [7] (plasma, after CCl4 and treatment), the “restoration of increased plasma ALT and AST” value was “more significant”.
With `COc1cc(/C=N/Nc2ncnc3c2cnn3-c2ccccc2)cc(OC)c1OC` [Compound D3], 356.5 ± 2.9 µM corresponded to half-maximal inhibition in data set [1] (IC50 at 24 h). Also, the “Safety Index (SI)” value in data set [5] is 4042.7. In data set [6], this molecule returned an IC50 of 11.5 ± 0.05 µM. Besides, in data set [3], the ALP is 123.16 ± 4.12 U/L, the ALT stood at 37.83 ± 2.45 U/L, the AST amounted to 147.33 ± 9.81 U/L and the Albumin came to 3.86 ± 0.12 g/dL. In addition, in data set [3], the Cholesterol was determined as 62.33 ± 1.68 mg/dL, the Creatinine was found to be 0.42 ± 0.02 mg/dL, the “Total Bilirubin” value came to 0.076 ± 0.006 mg/dL and the Triglycerides was determined as 64 ± 8.01 mg/dL. In addition, in data set [7] (setting [8]), the “MDA level compared to Clx” value is listed as “significantly better that Clx”, the “SOD compared to Clx” value is on record as “equal to it” and the “reduced GSH compared to Clx” value is recorded as “worse”.

By IC50 is commonly meant the point on the concentration scale where inhibition reaches its midpoint. Higher therefore signals weaker potency.
